Measured values reported in patent publication US8933039B2 (NPS Pharmaceuticals, Inc., priority 1995, dated 2015).

Columns and labels:
[1] = tested on: CD1 mice; assay: Intestinotrophic activity assessment: small bowel weight in mice; type: in vivo
In short: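 Activity expressed against native rat GLP-2(1-33) (100%) and as percent bowel-weight change over vehicle controls, from excised pylorus-to-cecum small bowel. Dosing: 2.5 μg peptide subcutaneously twice daily to 6-week female CD1 mice (n=3-4), killed at day 10 or 14 after fasting ≥20 h.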

[2] = biological target: DPP-IV (Homo sapiens, UniProt P27487); assay: in vitro; details: isolated enzyme dpp iv, pH 7.4, % Cleaved by DPP-IV
Sequence of DPP-IV (P27487 whole entry): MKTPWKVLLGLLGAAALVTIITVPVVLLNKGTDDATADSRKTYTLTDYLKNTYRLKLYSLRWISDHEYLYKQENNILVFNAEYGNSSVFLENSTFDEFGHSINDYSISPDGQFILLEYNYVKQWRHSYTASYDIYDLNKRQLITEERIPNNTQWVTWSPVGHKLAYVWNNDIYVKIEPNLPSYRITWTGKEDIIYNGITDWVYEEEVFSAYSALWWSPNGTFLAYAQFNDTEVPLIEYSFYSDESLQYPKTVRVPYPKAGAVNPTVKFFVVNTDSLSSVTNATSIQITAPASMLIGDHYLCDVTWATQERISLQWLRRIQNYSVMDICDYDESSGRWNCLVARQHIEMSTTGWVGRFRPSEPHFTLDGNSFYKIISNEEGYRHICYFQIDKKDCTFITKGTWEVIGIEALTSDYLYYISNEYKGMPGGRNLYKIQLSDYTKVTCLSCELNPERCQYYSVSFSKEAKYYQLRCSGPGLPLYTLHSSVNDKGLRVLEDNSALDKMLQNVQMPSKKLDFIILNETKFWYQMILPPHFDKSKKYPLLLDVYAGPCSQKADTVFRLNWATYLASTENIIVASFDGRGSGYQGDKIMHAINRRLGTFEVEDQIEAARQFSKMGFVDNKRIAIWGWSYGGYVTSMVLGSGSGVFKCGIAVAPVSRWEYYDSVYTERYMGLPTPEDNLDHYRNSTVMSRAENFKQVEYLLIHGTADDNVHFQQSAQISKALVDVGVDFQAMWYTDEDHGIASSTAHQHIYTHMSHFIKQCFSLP
Procedure: The mixture was incubated at 37° C. in a circulating water bath for 24 hours. The incubation was quenched by the addition of 50 μl of a solution of diprotin A prepared at a concentration of 4 mg/ml in PBS. Each peptide was tested in duplicate.
Each sample was analyzed by reverse-phase (RP) HPLC as follows: 90 μl of the quenched incubation mixture was injected onto a Rainin Dynamax 300 Å, C18, 5 micron, 4.6×250 millimeter column. The samples were eluted with 0.1% trifluoroacetic acid (TFA) in water modified with 0.1% acetonitrile using a linear gradient and a flow rate of 1 ml per minute. Sample components were detected at 214 nanometers (nm). The extent of cleavage was measured by relative integration of the peak corresponding to the cleavage product compared to that of the remaining undigested parent peptide.

`CC[C@H](C)[C@H](NC(=O)[C@H](Cc1ccccc1)NC(=O)[C@H](CC(=O)O)NC(=O)[C@H](CCCNC(=N)N)NC(=O)[C@H](C)NC(=O)[C@H](C)NC(=O)[C@H](CC(C)C)NC(=O)[C@H](CC(N)=O)NC(=O)[C@H](CC(=O)O)NC(=O)[C@H](CC(C)C)NC(=O)[C@@H](NC(=O)[C@@H](NC(=O)[C@H](CC(N)=O)NC(=O)[C@H](CCSC)NC(=O)[C@H](CCC(=O)O)NC(=O)[C@H](CC(=O)O)NC(=O)[C@H](CO)NC(=O)[C@H](Cc1ccccc1)NC(=O)[C@H](CO)NC(=O)CNC(=O)[C@H](CC(=O)O)NC(=O)CNC(=O)[C@@H](N)Cc1c[nH]cn1)[C@@H](C)O)[C@@H](C)CC)C(=O)N[C@@H](CC(N)=O)C(=O)N[C@@H](Cc1c[nH]c2ccccc12)C(=O)N[C@@H](CC(C)C)C(=O)N[C@H](C(=O)N[C@@H](CCC(N)=O)C(=O)N[C@H](C(=O)N[C@@H](CCCCN)C(=O)N[C@H](C(=O)N[C@H](C(=O)N[C@@H](CC(=O)O)C(=O)O)[C@@H](C)O)[C@@H](C)CC)[C@@H](C)O)[C@@H](C)CC` [[Gly2]hGLP-2(1-33)] was tested, and the “% Increase in small bowel weight” value ([1]; CD1 mice, 2.5 μg peptide s.c. b.i.d. in PBS, sacrificed 10 or 14 days, relative to vehicle only) was 59%, the “intestinotrophic activity compared with the naturally occurring molecule / rGLP-2 (in words)” value ([1]; comment on Table 1, CD1 mice) was “substantially increased” and the “% Activity (small bowel inducing activity relative to native rat GLP-2(1-33) = 100%)” value ([1]; mice, as Example 4, relative to native rat GLP-2(1-33)) was 300%. For the same compound, the metabolised at 24 h, 0.19 mg/ml [2] was 0%.
